The results in this text go back to patent publication US12622910B2, “Inhibitors of Bruton's tyrosine kinase and methods of their use” (Janssen Pharmaceutica NV, priority 2021, dated 2026).

The TGI is how far tumour growth fell short of that in controls. One may read the inhibition as the change of the read-out against control, counted positive when it falls. A higher inhibition goes with strong suppression.

Structures are written as SMILES.

In one data set the test system is CYP3A. As to the kind of experiment: CYP induction in plated human hepatocytes, midazolam probe. It counts as in vitro ADME. Particulars: 48 hours.
For another data set, the system named is human IL-10. As to the kind of experiment: Circulating human IL-10 in serum of NSG mice with OCI-LY10 tumors. It counts as in vivo. The text has this:
FIG. 18 depicts circulating human IL-10 cytokine serum levels of mice treated with the compound of Formula (III). IL-10 cytokine levels are graphed as % normalized to vehicle control IL-10 levels ±SEM. Female NSG mice were implanted SC with OCI-LY10 cells on the right flank on Day 0. After tumors were established 39 days post implantation, mice were randomized into experimental groups and dosed orally with a single dose (n=5/dose level/time point). Serum samples were collected 2, 4, 8, 12, 16 and 24 hours after compound administration.
In Vivo Efficacy in ABC-DLBCL Xenograft and PDX Mouse Models of Lymphoma-To evaluate the effect of the compound of Formula (III) on NFκB signaling in vivo, we analyzed circulating human IL-10 levels in serum of NSG mice implanted with OCI-LY10 DLBCL tumors treated with 0, 1, 3, 10, 30 and 100 mg/kg compound of Formula (III) at 2, 4, 8, 12, 16 and 24 hours after single dose administration. Human IL-10 levels dropped to around 50% of vehicle control 2 hours after dosing, lowering even further after 4 hours to below 20%, 10% and 5% of vehicle control IL-10 levels in 10 mg/kg, 30 mg/kg and 100 mg/kg compound of Formula (III) treatment groups, respectively, and remaining low up to 12 hours. Some rebound to 23% of vehicle control levels for 30 mg/kg and 100 mg/kg and to 39% for the 10 mg/kg dosing group are observed 16 hours after compound administration, while IL-10 levels normalize after 24 hours (FIG. 18).

The next data set relates to OCI-LY10 xenografts. As to the kind of experiment: OCI-LY10 human ABC-DLBCL xenograft efficacy. It counts as in vivo, female NSG mice. Conditions: Day 45. The text has this: FIG. 20 depicts the effect of the compound of Formula (III) on growth of established OCI-LY10 human ABC-DLBCL xenografts in mice PEG400/PVP-VA64, Polyethylene glycol 400/N-vinylpyrrolidone and vinyl acetate 64; SEM, standard error of the mean. Group tumor volumes are graphed as the mean±SEM. Bar below x-axis indicates the treatment period. Groups are plotted while at least ⅔ of the animals remained on the study. Mice were implanted SC on the right flank on Day 0. Tumors were established 33 days post implantation, mice were randomized into experimental groups and dosed orally twice or once daily for 3 weeks (n=10/group).
To evaluate the duration of signaling shutdown and occupancy of BTK protein after compound administration, we determined the amount of free BTK protein in OCI-LY10 DLBCL tumor lysates harvested using an BTK occupancy assay. […] BTK protein occupancy levels remained high with 71%, 94% and 96%, respectively, at 12 hours and 70%, 91% and 85%, respectively after 24 hours. (FIG. 19). The antitumor efficacy of compound of Formula (III) was assessed in mice bearing established SC OCI-LY10 human CD79b mutant DLBCL xenografts in female NSG mice, dosed either once (QD) or twice (BID) a day. Analysis of tumor growth inhibition was performed 14 days into the 21-day treatment period (Day 45) as that was the last day when 2/3 of the vehicle controls remained on the study. Compound of Formula (III) induced tumor growth inhibition in the OCI-LY10 model at all dose levels. […] Taken together, the in vivo data support a first in-human trial of the compound of Formula (III) in combination with Venetoclax in patients with B cell lymphomas.
In general terms: A xenograft is tissue or cells of one species grown in another, often human tumour cells in immunodeficient mice.

The next data set concerns the target T1, BLK (Homo sapiens, UniProt P51451).
T1 construct: purchased Eurofins Scientific
As to the kind of experiment: ActivX KiNativ native kinase profiling, Ramos cell lysates. It counts as binding. Conditions: activation loop labelling. The protocol: (§1) RESULTS AND DISCUSSION—Selectivity—The compound of Formula (III) was evaluated in three selectivity panels to assess the potential for off-target pharmacology (Table 8). […] The kinase off-target profile of The compound of Formula (III) was assessed in a full human wild-type panel using radiometric kinase activity assays (KinaseProfiler™ and IC50Profiler™; Eurofins Scientific) (Table 9; FIG. 23). The compound of Formula (III) inhibited 4/278 kinases >50% at 1 micromolar, identifying BTK and the three other kinases having analogous Cys residues with the potential for covalent inhibition (BMX, TEC, BLK). […]. The cellular kinase selectivity of The compound of Formula (III) was established in native Ramos B cell kinome assays (KiNativ™; ActivX) confirmed BTK as the primary target with inhibition of BLK and TEC inhibition detected (Table 10).

The target in another data set is T2, TEC (Homo sapiens, UniProt P42680).
T2 construct: purchased Eurofins Scientific
T2 sequence (P42680 1-631): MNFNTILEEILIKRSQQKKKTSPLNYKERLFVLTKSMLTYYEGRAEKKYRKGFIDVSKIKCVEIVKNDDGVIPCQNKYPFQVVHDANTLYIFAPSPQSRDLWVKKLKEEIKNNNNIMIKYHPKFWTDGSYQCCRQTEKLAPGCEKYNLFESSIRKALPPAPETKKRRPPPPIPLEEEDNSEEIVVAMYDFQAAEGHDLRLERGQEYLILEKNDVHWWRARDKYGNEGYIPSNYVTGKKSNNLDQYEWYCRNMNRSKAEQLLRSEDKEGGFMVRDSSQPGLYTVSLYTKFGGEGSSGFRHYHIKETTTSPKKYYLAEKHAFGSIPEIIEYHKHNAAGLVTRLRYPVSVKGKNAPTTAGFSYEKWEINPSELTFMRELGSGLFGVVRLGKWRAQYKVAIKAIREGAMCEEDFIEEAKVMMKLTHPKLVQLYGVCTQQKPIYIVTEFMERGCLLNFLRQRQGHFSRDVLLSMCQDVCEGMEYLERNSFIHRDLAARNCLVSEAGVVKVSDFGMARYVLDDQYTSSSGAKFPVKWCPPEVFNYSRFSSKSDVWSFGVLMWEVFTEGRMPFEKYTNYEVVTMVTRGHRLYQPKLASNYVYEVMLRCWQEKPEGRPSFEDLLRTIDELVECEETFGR
Described as above. It counts as binding. As to the method: as §1

T1 sequence (P51451 whole entry): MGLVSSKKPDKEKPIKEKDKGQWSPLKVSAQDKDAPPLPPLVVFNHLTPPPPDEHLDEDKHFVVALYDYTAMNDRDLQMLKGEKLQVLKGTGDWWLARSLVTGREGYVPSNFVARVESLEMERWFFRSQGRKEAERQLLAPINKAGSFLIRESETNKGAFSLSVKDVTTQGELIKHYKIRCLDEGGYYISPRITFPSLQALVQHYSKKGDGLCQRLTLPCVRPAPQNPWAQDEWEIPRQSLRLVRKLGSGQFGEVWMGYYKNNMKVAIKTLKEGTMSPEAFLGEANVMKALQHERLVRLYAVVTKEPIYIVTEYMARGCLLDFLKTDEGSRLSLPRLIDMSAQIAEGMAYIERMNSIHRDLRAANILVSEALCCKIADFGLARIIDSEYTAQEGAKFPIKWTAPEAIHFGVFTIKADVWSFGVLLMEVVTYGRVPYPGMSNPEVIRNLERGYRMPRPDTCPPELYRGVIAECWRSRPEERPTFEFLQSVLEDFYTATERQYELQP

As to `C=CC(=O)N[C@H]1CCC[C@H]1NC(=O)c1sc2nccc3c2c1NC(=O)N3c1cnc(CC(C)C)cc1C` (atropisomer, axis not shown) [compound of Formula (III), N-((1R,2S)-2-Acrylamidocyclopentyl)-5-(S)-(6-isobutyl-4-methylpyridin-3-yl)-4-oxo-4,5-dihydro-3H-1-thia-3,5,8-triazaacenaphthylene-2-carboxamide], the “change in CYP3A enzyme activity” value with CYP3A (1 μM) is recorded as −0.8%; in the data set with CYP3A (10 μM), 0.8%. Moreover, the “human IL-10, % of vehicle control” value is “below 20%” in the data set with human IL-10 (10 mg/kg, 4 hours); 39% with human IL-10 (10 mg/kg, 16 hours); less than 10% in the data set on human IL-10 (30 mg/kg, 4 hours); 23% in the data set with human IL-10 (30 mg/kg, 16 hours); less than 5% in the data set with human IL-10 (100 mg/kg, 4 hours); 23% in the data set with human IL-10 (100 mg/kg, 16 hours). The “human IL-10, % of vehicle control” value with human IL-10 (2 hours after single oral dose) is “around 50%”. The tumour growth inhibition (TGI) with OCI-LY10 xenografts (5 mg/kg BID) came out at 26%; in the data set on OCI-LY10 xenografts (10 mg/kg QD) it was 24%; with OCI-LY10 xenografts (15 mg/kg BID), 51%; in the data set with OCI-LY10 xenografts (30 mg/kg QD), 35%; in the data set on OCI-LY10 xenografts (50 mg/kg BID) it was 78%; in the data set on OCI-LY10 xenografts (100 mg/kg QD), 51%. Further, the ΔTGI was found to be 34% in the data set on OCI-LY10 xenografts (5 mg/kg BID); 30% in the data set with OCI-LY10 xenografts (10 mg/kg QD); 66% in the data set with OCI-LY10 xenografts (15 mg/kg BID); 45% with OCI-LY10 xenografts (30 mg/kg QD); 102% in the data set with OCI-LY10 xenografts (50 mg/kg BID); 65% with OCI-LY10 xenografts (100 mg/kg QD). The inhibition at 1 µM turned out to be 61.9% against BLK and 77.6% against TEC.
